Experimental data published in patent publication US8772445B2, “Production and use of antitumoral cyclodepsipeptides” (Helmholtz-Zentrum Fuer Ozeanforschung Kiel (Geomar), priority 2008, dated 2014).

Legend:
Assay in all cases: crystal violet assay, antiproliferative effect against tumor cells
Format in all cases: cell-based
[1] = system: pancreatic tumor cell line Colo357; conditions: for inhibition at 1 µg/mL: Homo sapiens, Colo357, at 1 μg/mL, on average
Procedure: (§1) 4) Determination of the Antiproliferative Effect Against Tumor Cells
(§2) The substances Scopularid A and Scopularid B have shown significant inhibitory action against tumor cell lines, in particular pancreatic tumor cell lines Colo357 and Panc89 and also intestinal tumor cell lines HT29 (on average an inhibition between 25-50% at 1 μg/mL). This activity was determined using the crystal violet assay (Siegmund, D. et al. “Death receptor-induced signalling pathways are differentially regulated by gamma interferon upstream of caspase 8 processing.” Mol. Cell. Biol. 2005; 25: 6363-6379).

[2] = system: pancreatic tumor cell line Panc89; conditions: Panc89, at 1 μg/mL, on average
Procedure: as §1, §2

[3] = system: intestinal tumor cell line HT29; conditions: Homo sapiens, HT-29; HT29, at 1 μg/mL, on average
Procedure: as §1, §2

CCCCCCC(C)C1CC(=O)NCC(=O)N[C@@H](C(C)C)C(=O)N[C@H](CC(C)C)C(=O)N[C@@H](C)C(=O)N[C@@H](Cc2ccccc2)C(=O)O1 (stereo partly shown) [Scopularid A]
inhibition at 1 µg/mL [1]: 25 to 50% | inhibition at 1 µg/mL [2]: 25 to 50% | inhibition at 1 µg/mL [3]: 25 to 50%

CCCCC(C)C1CC(=O)NCC(=O)N[C@@H](C(C)C)C(=O)N[C@H](CC(C)C)C(=O)N[C@@H](C)C(=O)N[C@@H](Cc2ccccc2)C(=O)O1 (stereo partly shown) [Scopularid B]
inhibition at 1 µg/mL [1]: 25 to 50% | antiproliferative effect against tumor cells (in words) ([1]; tumor cell lines, in particular Colo357): significant inhibitive effect | inhibition at 1 µg/mL [2]: 25 to 50% | inhibition at 1 µg/mL [3]: 25 to 50%
